From US12532889B2, “Herbicidal compositions comprising glufosinate” (BASF SE, priority 2023, dated 2026)

Tests used:
Assay in all cases: Post-emergence application in field trials (Example A)
Type in all cases: in vivo
CNDSS (Conyza sp.) = details: Table 1.5; CNDSS growth stage 26-59, height 15-55 cm; A-1 50, B-2 600 g ai/ha; 14 DAT; water 200 l/ha
How it was run: (§1)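 Percent weed damage (0 = none, 100 = complete destruction), scored against untreated controls at the given DAT, is reported for solo and combined applications. Weeds, naturally occurring or seeded on field plots, were treated after emergence. Colby's formula supplied the additive expectation.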

BIDPI (Bidens pilosa) = details: Table 1.14; BIDPI height 20-45 cm; A-1 50, B-2 400 g ai/ha; 21 DAT; water 100 l/ha
How it was run: as §1

[1] = test system: BOILF (Spermacoce latifolia); details: Table 1.16, A-1 25, B-2 400 g ai/ha, 21 DAT, water 200 l/ha
How it was run: as §1

AVESG (Avena strigosa) = details: Table 1.6; AVESG growth stage 11-21, height 5-10 cm; A-1 25, B-2 400 g ai/ha; 14 DAT; water 200 l/ha
How it was run: as §1

[2] = test system: SETVE (Setaria verticillata); details: 42 DAT, growth stage 21-23, height 8-16 cm
How it was run: as §1

IPOTR (Ipomoea triloba) = details: 21 DAT
How it was run: as §1

[3] = test system: AMAPA (Amaranthus palmeri); details: Table 1.27, AMAPA height 30 cm, 21 DAT, water 200 l/ha
How it was run: as §1

[4] = test system: BRAPL (Brachiaria plantaginea); details: BRAPL growth stage 24, A-1 50, B-2 400 g ai/ha, water 200 l/ha
How it was run: as §1

[5] = test system: SETPA (Setaria palmifolia); details: Table 5.3; SETPA growth stage 76-77; A-1 25, B-6 252 g ai/ha; 28 DAT; water 300 l/ha
How it was run: as §1

CYNDA (Cynodon dactylon) = details: A-1 25, B-6 252 g ai/ha, 28 DAT, water 400 l/ha
How it was run: as §1

[6] = test system: CYPDI (Cyperus difformis); details: CYPDI height 25 cm
Protocol: (§2) In the examples below, using the method of S. R. Colby (1967) “Calculating synergistic and antagonistic responses of herbicide combinations”, Weeds 15, p. 22ff., the value E, which is expected if the activity of the individual active compounds is only additive, was calculated:
(§3) [formula] • where • X=percent activity using active herbicide A at an application rate a; • Y=percent activity using active herbicide B (e.g. glufosinate) at an application rate b; • E=expected activity (in %) by A+B at application rates a+b.
(§4) If the value found experimentally is higher than the value E calculated according to Colby, a synergistic effect is present.
(§5) On field test sites, natural weed infestation or seeded weeds were treated post-emergence of the weeds.
(§6) In the field trials, the weeds were treated as indicated below.
(§7) In the following experiments, the herbicidal activity for the individual herbicidal compositions (solo and mixture applications) was assessed at the indicated days after treatment (DAT). The assessments for the damage on undesired weeds caused by the composition was carried out using a scale from 0 to 100%, compared to the untreated control plants. Here, 0 means no damage and 100 means complete destruction of the plants.
(§8) Post-emergence application of Herbicide A-1 (A-1) and glufosinate ammonium (B-2) in Field Trials:
(§9) Herbicide A-1 (50 g/l), glufosinate ammonium (200 g/l) and optional herbicide C were, together with addition of 0.5% v/v MSO (methylated seed oil) as adjuvant, formulated in water as distribution medium as indicated and sprayed with commercial flat fan nozzles.

[7] = test system: SPCHI (Spermacoce hispida); details: Table 1.2, SPCHI height 25 cm, 14 DAT, water volume 100 l/ha, 0.5% v/v MSO
Protocol: as §2, §3, §4, §5, §6, §7, §8, §9

EPHHI (Euphorbia hirta) = details: Table 1.2, EPHHI height 25 cm, 14 DAT, water volume 100 l/ha, 0.5% v/v MSO
Protocol: as §2, §3, §4, §5, §6, §7, §8, §9

ELEIN (Eleusine indica) [8] = test system: ELEIN (Eleusine indica)
Protocol: as §2, §3, §4, §5, §6, §7, §8, §9

ELEIN (Eleusine indica) [9] = details: A-1 25, B-6 252 g ai/ha, water 400 l/ha
[10] = Table 1.11, A-1 25, B-2 400 g ai/ha, water 100 l/ha
[11] = Table 1.16, A-1 25, B-2 400 g ai/ha, water 200 l/ha
[12] = Table 5.4, CYNDA growth stage 76-77, height 15-16 cm
[13] = Table 5.5, CYNDA growth stage 72
[14] = Table 1.15, A-1 25, B-2 400 g ai/ha, 21 DAT, water 100 l/ha
[15] = Table 1.10, ELEIN growth stage 23-25, height 3-5 cm, A-1 25, B-2 400 g ai/ha, 20 DAT, water 200 l/ha
[16] = Table 1.14, ELEIN growth stage 24, A-1 25, B-2 400 g ai/ha, 21 DAT, water 100 l/ha
[17] = Table 1.15, ELEIN height 25 cm, A-1 25, B-2 400 g ai/ha, 21 DAT, water 100 l/ha
[18] = Table 1.15, ELEIN height 25 cm, A-1 50, B-2 400 g ai/ha, 21 DAT, water 100 l/ha
[19] = Table 1.18, ELEIN growth stage 24, A-1 25, B-2 400 g ai/ha, 21 DAT, water 200 l/ha
[20] = Table 1.18, ELEIN growth stage 24, A-1 50, B-2 400 g ai/ha, 21 DAT, water 200 l/ha
[21] = Table 1.21, ELEIN growth stage 24, A-1 25, B-2 400 g ai/ha, 21 DAT, water 200 l/ha
[22] = Table 1.21, ELEIN growth stage 24, A-1 50, B-2 400 g ai/ha, 21 DAT, water 200 l/ha
[23] = Table 1.4, ELEIN growth stage 24, A-1 50, B-2 400 g ai/ha, 14 DAT, water 200 l/ha
[24] = Table 1.9, ELEIN growth stage 23-25, height 3-5 cm, A-1 25, B-2 400 g ai/ha, 20 DAT, water 100 l/ha
[25] = Table 5.1, ELEIN height 5-20 cm, 21 DAT
[26] = Table 5.6, ELEIN growth stage 14-15, height 9-14 cm, 28 DAT

| Compound | % herbicidal activity (CNDSS (Conyza sp.)) | % herbicidal activity (BIDPI (Bidens pilosa)) | % herbicidal activity [1] | % herbicidal activity (AVESG (Avena strigosa)) | % herbicidal activity (IPOTR (Ipomoea triloba); [10]) | % herbicidal activity (IPOTR (Ipomoea triloba); [11]) | % herbicidal activity ([3]; A-1 12.5, B-2 400 g ai/ha) | % herbicidal activity ([3]; A-1 25, B-2 400 g ai/ha) | % herbicidal activity ([4]; Table 1.18, 21 DAT) | % herbicidal activity ([4]; Table 1.4, 14 DAT) | % herbicidal activity [5] | % herbicidal activity (CYNDA (Cynodon dactylon); [12]) | % herbicidal activity (CYNDA (Cynodon dactylon); [13]) | % herbicidal activity [6, 14] | % herbicidal activity (ELEIN (Eleusine indica) [8]; [15]) | % herbicidal activity (ELEIN (Eleusine indica) [8]; [16]) | % herbicidal activity (ELEIN (Eleusine indica) [8]; [17]) | % herbicidal activity (ELEIN (Eleusine indica) [8]; [18]) | % herbicidal activity (ELEIN (Eleusine indica) [8]; [19]) | % herbicidal activity (ELEIN (Eleusine indica) [8]; [20]) | also measured |
| --- | --- | --- | --- | --- | --- | --- | --- | --- | --- | --- | --- | --- | --- | --- | --- | --- | --- | --- | --- | --- | --- |
| CCOC(=O)COc1ccccc1Oc1nc(-n2c(=O)cc(C(F)(F)F)n(C)c2=O)c(F)cc1Cl [A-1, ethyl 2-[2-[[3-chloro-5-fluoro-6-[3-methyl-2,6-dioxo-4-(trifluoromethyl)pyrimidin-1-yl]-2-pyridyl]oxy]phenoxy]acetate] | 72% | 74% | 72% | 78% | 85% | 82% | 70% | 85% | 42% | 85% | 65% | 53% | 72% | 50% | 82% | 58% | 50% | 60% | 67% | 82% | % Herbicidal activity ([2]; A-1 12.5 g ai/ha): 60%; % herbicidal activity ([2]; A-1 18 g ai/ha): 50%; % herbicidal activity ([6]; Table 1.2, A-1 solo 25 g ai/ha, 14 DAT, water volume 100 l/ha, 0.5% v/v MSO): 52%; % herbicidal activity ([6]; Table 1.2, A-1 solo 50 g ai/ha, 14 DAT, water volume 100 l/ha, 0.5% v/v MSO): 60%; % herbicidal activity ([7]; A-1 solo 25 g ai/ha): 40%; % herbicidal activity ([7]; A-1 solo 50 g ai/ha): 50%; % herbicidal activity (EPHHI (Euphorbia hirta); A-1 solo 25 g ai/ha): 50%; % herbicidal activity (ELEIN (Eleusine indica) [8]; Table 1.1, ELEIN growth stage 24, A-1 solo 25 g ai/ha, 14 DAT, water volume 100 l/ha, 0.5% v/v MSO): 75%; % herbicidal activity (ELEIN (Eleusine indica) [8]; [21]): 68%; % herbicidal activity (ELEIN (Eleusine indica) [8]; [22]): 73%; % herbicidal activity (ELEIN (Eleusine indica) [8]; [23]): 88%; % herbicidal activity (ELEIN (Eleusine indica) [8]; [24]): 91%; % herbicidal activity (ELEIN (Eleusine indica) [9]; [25]): 57%; % herbicidal activity (ELEIN (Eleusine indica) [9]; [26]): 91% |
| CP(=O)(O)CCC(N)C(=O)O (stereo not drawn) [B-2, glufosinate-ammonium] | 90% | 55% | 73% | 83% | 60% | 68% | 20% | 20% | 18% | 55% | – | – | – | 10% | 35% | 0% | 10% | 10% | 0% | 0% | % herbicidal activity ([6]; Table 1.2, B-2 solo 400 g ai/ha, 14 DAT, water volume 100 l/ha, 0.5% v/v MSO): 20%; % herbicidal activity ([7]; B-2 solo 400 g ai/ha): 20%; % herbicidal activity (EPHHI (Euphorbia hirta); B-2 solo 400 g ai/ha): 20%; % herbicidal activity (ELEIN (Eleusine indica) [8]; Table 1.1, ELEIN growth stage 24, B-2 solo 400 g ai/ha, 14 DAT, water volume 100 l/ha, 0.5% v/v MSO): 12%; % herbicidal activity (ELEIN (Eleusine indica) [8]; [21]): 0%; % herbicidal activity (ELEIN (Eleusine indica) [8]; [22]): 0%; % herbicidal activity (ELEIN (Eleusine indica) [8]; [23]): 18%; % herbicidal activity (ELEIN (Eleusine indica) [8]; [24]): 20% |
| CP(=O)(O)CC[C@H](N)C(=O)O.N [B-6, glufosinate-P-ammonium] | – | – | – | – | – | – | – | – | – | – | 32% | 88% | 86% | – | – | – | – | – | – | – | % Herbicidal activity ([2]; B-6 252 g ai/ha): 60%; % herbicidal activity ([2]; B-6 252 g ai/ha): 35%; % herbicidal activity (ELEIN (Eleusine indica) [9]; [25]): 0%; % herbicidal activity (ELEIN (Eleusine indica) [9]; [26]): 40% |
